Non-standard residues stand in square brackets, D forms with d. Residues, ends and D or L forms follow the SMILES beside them. *: point of attachment. 5FAM = O=C1OC2(c3ccc(O)cc3Oc3cc(O)ccc32)c2ccc(C(=O)*)cc21; F2Pmp = N[C@@H](Cc1ccc(C(F)(F)P(=O)(O)O)cc1)C(=O)O; Pmp = N[C@@H](Cc1ccc(CP(=O)(O)O)cc1)C(=O)O; pY = N[C@@H](Cc1ccc(OP(=O)(O)O)cc1)C(=O)O; X1 = O=C(O)C(C(=O)O)*
Legend:
[1] = biological target: T1, SHP2 C‐SH2 domain (Homo sapiens, UniProt Q06124); experiment: Fluorescence polarization (FP) binding assay, SHP2 C-SH2 domain; conditions: 100 nM FAM-labelled peptide; for Kd: read-out: K D ± SEM, C‐SH2 (FP)
T1 construct: SHP2 N-SH2 domain (1–105), C-SH2 domain (106–220), PTP domain (224–541) and; His6 (pETM22 vector) (N, cleaved yes); made in house; host or cells: E. coli BL21(DE3)
T1 sequence (Q06124 106-220): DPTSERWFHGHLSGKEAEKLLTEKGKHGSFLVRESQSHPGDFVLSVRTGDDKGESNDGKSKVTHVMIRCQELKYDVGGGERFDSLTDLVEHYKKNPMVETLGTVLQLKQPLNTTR
Method: (§1) buffer and stored in 5 mL binding buffer at 4°C. His-tagged 3C protease (0.5 mg; EMBL) was added to the pooled eluted fractions and dialysed using Spectra Por Dialysis Tubing (MWCO 6-8 kDa, 23 mm; Spectrum Labs) in 1 L of binding buffer at 4°C for 3 hours, then overnight in fresh buffer. A new column was prepared by loading 2 mL Ni-NTA Agarose (Invitrogen) as a 50% slurry in EtOH. The column was washed with 10 mL H2O to remove the EtOH and equilibrated with 10 mL binding buffer. The protein/3C protease mixture was loaded onto the column and incubated for 1 hour at 4°C on a rocker. The flow through containing the protein was collected, the column was washed with 100 mL binding buffer and the 3C protease was eluted with 5 mL elution buffer. Protein purification was monitored by SDS-PAGE using NuPAGE 4-12% Bis-Tris Protein Gels (Invitrogen) run in MOPS buffer (50 mM MOPS, 50 mM Tris-HCl pH 7.7, 1 mM EDTA, 0.1% SDS) followed by Coomassie staining using Coomassie Brilliant Blue (Roth). The purified protein was dialysed into the final storage buffer (50 mM HEPES pH 7.5, 150 mM NaCl, 2 mM DTT, 20% glycerol). Aliquots were prepared and stored at -80°C until required. […]
(§2) 4. Fluorescence polarization
(§3) Fluorescence polarization (FP) was used to measure the binding of FAM-labelled peptides to the SHP2 C-SH2, SHP2 N-SH2, SHP2 PTP, CSK SH2 or Src SH2 domains. Each peptide was added to increasing concentrations of SHP2 C-SH2, SHP2 N-SH2, SHP2 PTP, CSK SH2 or Src SH2 protein in FP buffer (50 mM HEPES pH 7.5, 150 mM NaCl, 1 mM EDTA, 0.05% Tween 20) to give a final peptide […]
(§4) concentration of 100 nM in a final volume of 200 µL. For baseline subtraction, each peptide was added to FP buffer, instead of protein, with a final peptide concentration of 100 nM in a final volume of 200 µL. Samples were mixed gently then 3 x 60 µL of each sample was transferred into triplicate wells in a 96-well plate (OptiPlate-96 F Black; PerkinElmer). The FP was immediately measured on a Synergy H1 Microplate Reader (BioTek) with the excitation and emission monitored at 485 nm and 528 nm, respectively, over 30 minutes. FP values were automatically calculated by the Gen5 3.03 (BioTek) software associated with the microplate reader. Data were analysed in Excel 2016 by subtracting baseline values from FP values at 10 minutes. Data were then further analysed in GraphPad Prism 6 by plotting the baseline subtracted FP values against the protein concentration and fitting the data to a variable slope model of non-linear regression to obtain the KD values. Data are from three independent experiments, each performed in technical triplicates.
(§5) 5. Isothermal titration calorimetry […]
(§6) Analysis Software (Malvern Panalytical). For the data analysis, a 1:1 binding stoichiometry between the Ac-ITSM(pTyr) and SH2 domain was assumed. ITC measurements were performed once.

[2] = biological target: T2, SHP2 N‐SH2 domain (Homo sapiens, UniProt Q06124); experiment: Fluorescence polarization (FP) binding assay, SHP2 N-SH2 domain; conditions: 100 nM FAM-labelled peptide; for Kd: increasing N-SH2 protein, 50 mM HEPES pH 7.5, 150 mM NaCl, 1 mM EDTA, 0.05% Tween 20, FP at 10 min, three independent experiments in technical triplicates, read-out: K D ± SEM, N‐SH2 (FP)
T2 construct: SHP2 N-SH2 domain (1–105), C-SH2 domain (106–220), PTP domain (224–541) and; His6 (pETM22 vector) (N, cleaved yes); made in house; host or cells: E. coli BL21(DE3)
T2 sequence (Q06124 1-105): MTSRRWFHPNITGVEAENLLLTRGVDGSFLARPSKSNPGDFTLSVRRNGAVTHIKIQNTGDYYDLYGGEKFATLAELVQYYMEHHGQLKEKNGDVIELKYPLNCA
Method: as §1, §2, §3, §4, §5, §6

[3] = increasing C-SH2 protein, 50 mM HEPES pH 7.5, 150 mM NaCl, 1 mM EDTA, 0.05% Tween 20, FP at 10 min, three independent experiments in technical triplicates

Row | Structure (SMILES) | binding to the C‐SH2 domain, in words [1] | Kd [1, 3] | binding to the N‐SH2 domain, in words [2] | Kd [2] | K D ± SEM, C‐SH2 (FP) [1, 3]
1 | CC[C@H](C)[C@H](NC(=O)[C@@H](NC(=O)[C@H](C)NC(=O)[C@H](Cc1ccc(C(F)(F)P(=O)(O)O)cc1)NC(=O)[C@H](CCC(=O)O)NC(=O)[C@@H](NC(=O)[C@H](CCC(N)=O)NC(=O)[C@H](CCC(=O)O)NC(=O)c1ccc2c(c1)C(=O)OC21c2ccc(O)cc2Oc2cc(O)ccc21)[C@@H](C)O)[C@@H](C)O)C(=O)N[C@H](C(=O)N[C@@H](Cc1ccccc1)C(=O)N1CCC[C@H]1C(N)=O)C(C)C [FAM‐ITSM(F2Pmp)] (5FAM-EQTE[F2Pmp]ATIVFP-NH2) | marked decrease in binding affinity | > 2000 nM | slightly better binding than FAM‐ITSM(L‐OMT) | 1390 ± 63 nM | –
2 | CC[C@H](C)[C@H](NC(=O)[C@@H](NC(=O)[C@H](C)NC(=O)[C@H](Cc1ccc(OC(C(=O)O)C(=O)O)cc1)NC(=O)[C@H](CCC(=O)O)NC(=O)[C@@H](NC(=O)[C@H](CCC(N)=O)NC(=O)[C@H](CCC(=O)O)NC(=O)c1ccc2c(c1)C(=O)OC21c2ccc(O)cc2Oc2cc(O)ccc21)[C@@H](C)O)[C@@H](C)O)C(=O)N[C@H](C(=O)N[C@@H](Cc1ccccc1)C(=O)N1CCC[C@H]1C(N)=O)C(C)C [FAM‐ITSM(L‐OMT)] (5FAM-EQTEY(X1)ATIVFP-NH2) | retained binding | 257 ± 8.3 nM | – | 1710 ± 105 nM | –
3 | CC[C@H](C)[C@H](NC(=O)[C@@H](NC(=O)[C@H](C)NC(=O)[C@H](Cc1ccc(CP(=O)(O)O)cc1)NC(=O)[C@H](CCC(=O)O)NC(=O)[C@@H](NC(=O)[C@H](CCC(N)=O)NC(=O)[C@H](CCC(=O)O)NC(=O)c1ccc2c(c1)C(=O)OC21c2ccc(O)cc2Oc2cc(O)ccc21)[C@@H](C)O)[C@@H](C)O)C(=O)N[C@H](C(=O)N[C@@H](Cc1ccccc1)C(=O)N1CCC[C@H]1C(N)=O)C(C)C [FAM‐ITSM(Pmp)] (5FAM-EQTE[Pmp]ATIVFP-NH2) | marked decrease in binding affinity | > 2000 nM | greatly reduced binding | > 10000 nM | –
4 | CC[C@H](C)[C@H](NC(=O)[C@@H](NC(=O)[C@H](C)NC(=O)[C@H](Cc1ccc(OP(=O)(O)O)cc1)NC(=O)[C@H](CCC(=O)O)NC(=O)[C@@H](NC(=O)[C@H](CCC(N)=O)NC(=O)[C@H](CCC(=O)O)NC(=O)c1ccc2c(c1)C(=O)OC21c2ccc(O)cc2Oc2cc(O)ccc21)[C@@H](C)O)[C@@H](C)O)C(=O)N[C@H](C(=O)N[C@@H](Cc1ccccc1)C(=O)N1CCC[C@H]1C(N)=O)C(C)C [FAM‐ITSM(pTyr), reference compound] (5FAM-EQTE[pY]ATIVFP-NH2) | – | 48.9 nM | – | 164 ± 19.5 nM | –
5 | CC[C@H](C)[C@H](NC(=O)[C@@H](NC(=O)[C@H](C)NC(=O)[C@H](Cc1ccc(OP(=O)(O)O)cc1)NC(=O)[C@H](C)NC(=O)[C@@H](NC(=O)[C@H](CCC(N)=O)NC(=O)[C@H](CCC(=O)O)NC(=O)c1ccc2c(c1)C(=O)OC21c2ccc(O)cc2Oc2cc(O)ccc21)[C@@H](C)O)[C@@H](C)O)C(=O)N[C@H](C(=O)N[C@@H](Cc1ccccc1)C(=O)N1CCC[C@H]1C(N)=O)C(C)C [compound 4] (5FAM-EQTA[pY]ATIVFP-NH2) | – | 95.1 ± 14.4 nM | – | 234 ± 17.6 nM | –
6 | CC[C@H](C)[C@H](NC(=O)[C@H](C)NC(=O)[C@H](C)NC(=O)[C@H](Cc1ccc(OP(=O)(O)O)cc1)NC(=O)[C@H](CCC(=O)O)NC(=O)[C@@H](NC(=O)[C@H](CCC(N)=O)NC(=O)[C@H](CCC(=O)O)NC(=O)c1ccc2c(c1)C(=O)OC21c2ccc(O)cc2Oc2cc(O)ccc21)[C@@H](C)O)C(=O)N[C@H](C(=O)N[C@@H](Cc1ccccc1)C(=O)N1CCC[C@H]1C(N)=O)C(C)C [compound 5] (5FAM-EQTE[pY]AAIVFP-NH2) | – | 126 ± 6.2 nM | – | 1140 ± 585 nM | –
7 | CC(C)[C@H](NC(=O)[C@H](C)NC(=O)[C@@H](NC(=O)[C@H](C)NC(=O)[C@H](Cc1ccc(OP(=O)(O)O)cc1)NC(=O)[C@H](CCC(=O)O)NC(=O)[C@@H](NC(=O)[C@H](CCC(N)=O)NC(=O)[C@H](CCC(=O)O)NC(=O)c1ccc2c(c1)C(=O)OC21c2ccc(O)cc2Oc2cc(O)ccc21)[C@@H](C)O)[C@@H](C)O)C(=O)N[C@@H](Cc1ccccc1)C(=O)N1CCC[C@H]1C(N)=O [compound 6] (5FAM-EQTE[pY]ATAVFP-NH2) | – | – | – | > 10000 nM | no binding
8 | CC[C@H](C)[C@H](NC(=O)[C@@H](NC(=O)[C@H](C)NC(=O)[C@H](Cc1ccc(OP(=O)(O)O)cc1)NC(=O)[C@H](CCC(=O)O)NC(=O)[C@@H](NC(=O)[C@H](CCC(N)=O)NC(=O)[C@H](CCC(=O)O)NC(=O)c1ccc2c(c1)C(=O)OC21c2ccc(O)cc2Oc2cc(O)ccc21)[C@@H](C)O)[C@@H](C)O)C(=O)N[C@@H](C)C(=O)N[C@@H](Cc1ccccc1)C(=O)N1CCC[C@H]1C(N)=O [compound 7] (5FAM-EQTE[pY]ATIAFP-NH2) | – | > 2000 nM | – | 1080 ± 84 nM | –
9 | CC[C@H](C)[C@H](NC(=O)[C@@H](NC(=O)[C@H](C)NC(=O)[C@H](Cc1ccc(OP(=O)(O)O)cc1)NC(=O)[C@H](CCC(=O)O)NC(=O)[C@@H](NC(=O)[C@H](CCC(N)=O)NC(=O)[C@H](CCC(=O)O)NC(=O)c1ccc2c(c1)C(=O)OC21c2ccc(O)cc2Oc2cc(O)ccc21)[C@@H](C)O)[C@@H](C)O)C(=O)N[C@H](C(=O)N[C@@H](C)C(=O)N1CCC[C@H]1C(N)=O)C(C)C [compound 8] (5FAM-EQTE[pY]ATIVAP-NH2) | – | 185 ± 30.8 nM | – | > 2000 nM | –
10 | CC[C@H](C)[C@H](NC(=O)[C@@H](NC(=O)[C@H](C)NC(=O)[C@H](Cc1ccc(OP(=O)(O)O)cc1)NC(=O)[C@H](CCC(=O)O)NC(=O)[C@@H](NC(=O)[C@H](CCC(N)=O)NC(=O)c1ccc2c(c1)C(=O)OC21c2ccc(O)cc2Oc2cc(O)ccc21)[C@@H](C)O)[C@@H](C)O)C(=O)N[C@@H](CCCCN)C(=O)N[C@H](C(=O)N1CCC[C@H]1C(N)=O)[C@@H](C)CC [compound 12] (5FAM-QTE[pY]ATIKIP-NH2) | – | 141 ± 6.2 nM | – | – | –
11 | CC[C@H](C)[C@H](NC(=O)[C@@H](NC(=O)[C@H](C)NC(=O)[C@H](Cc1ccc(OP(=O)(O)O)cc1)NC(=O)[C@H](CCC(=O)O)NC(=O)[C@@H](NC(=O)[C@H](CCCCN)NC(=O)c1ccc2c(c1)C(=O)OC21c2ccc(O)cc2Oc2cc(O)ccc21)[C@@H](C)O)[C@@H](C)O)C(=O)N[C@@H](CCCCN)C(=O)N[C@@H](Cc1c[nH]cn1)C(=O)N1CCC[C@H]1C(N)=O [compound 19] (5FAM-KTE[pY]ATIKHP-NH2) | – | 105 ± 3.6 nM | – | – | –
12 | CC[C@H](C)[C@H](NC(=O)[C@@H](NC(=O)[C@H](C)NC(=O)[C@H](Cc1ccc(OP(=O)(O)O)cc1)NC(=O)[C@H](CCC(=O)O)NC(=O)[C@H](CCC(=O)O)NC(=O)[C@H](CCCCN)NC(=O)c1ccc2c(c1)C(=O)OC21c2ccc(O)cc2Oc2cc(O)ccc21)[C@@H](C)O)C(=O)N[C@@H](CCCCN)C(=O)N[C@@H](Cc1c[nH]cn1)C(=O)N1CCC[C@H]1C(N)=O [compound 20] (5FAM-KEE[pY]ATIKHP-NH2) | – | > 500 nM | – | – | –

— PMC12118337, “Development of a Peptide Inhibitor Targeting the C‐SH2 Domain of the SHP2 Phosphatase” (Chembiochem, 2025)
